# Assay results as given in the NIST ThermoML archive (doi:10.1016/j.jct.2008.07.019).
# Where “and” joins values, the source holds several entries; their conditions need not be identical. Equal entries are not always repeated. ± gives the expanded uncertainty stated by the source.
# Assay: cn = amount concentration of the nth substance listed, in mol/dm3
# Conditions: 101 kPa, Liquid, c1 = 2
SMILES,viscosity (298.15 K),viscosity (303.15 K),viscosity (308.15 K),viscosity (313.15 K),viscosity (318.15 K),viscosity (323.15 K)
[Cl-].[K+] [potassium chloride] + O,0.887 ± 0.022 mPa·s,0.8552 ± 0.022 mPa·s,0.7658 ± 0.02 mPa·s,0.6995 ± 0.018 mPa·s,0.6492 ± 0.017 mPa·s,0.6037 ± 0.016 mPa·s
O=[N+]([O-])[O-].[K+] [potassium nitrate] + O,0.9118 ± 0.023 mPa·s,0.8404 ± 0.021 mPa·s,0.7619 ± 0.02 mPa·s,0.6989 ± 0.018 mPa·s,0.64 ± 0.017 mPa·s,0.5929 ± 0.016 mPa·s and 0.5829 ± 0.016 mPa·s
